Legend:
Experiment in all cases: relative viability (nuclei count vs DMSO), 5 days (fraction); higher = more cells survive
AGI-6780 + Tozasertib = compound: O=C(Nc1cccc(C(F)(F)F)c1)Nc1cc(S(=O)(=O)NC2CC2)ccc1-c1ccsc1 [AGI-6780] + Cc1cc(Nc2cc(N3CCN(C)CC3)nc(Sc3ccc(NC(=O)C4CC4)cc3)n2)n[nH]1 [Tozasertib] (partner 0.1 µM)
Method in brief: (§1)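 Dosing by pin tool came one day after lung cancer cell lines were seeded in 1536-well plates, using either one drug or a fixed anchor-drug dose plus five library-drug doses (not always all listed) in √10 steps. After 5 days, nuclei were counted on 4× images. Relative viability is treated-well nuclei count divided by vehicle-well nuclei count, and values are medians of duplicate plates.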

AGI-6780 + AZD7762 = compound: O=C(Nc1cccc(C(F)(F)F)c1)Nc1cc(S(=O)(=O)NC2CC2)ccc1-c1ccsc1 [AGI-6780] + NC(=O)Nc1cc(-c2cccc(F)c2)sc1C(=O)N[C@H]1CCCNC1 [AZD7762] (partner 0.2 µM)
Method in brief: as §1

AGI-6780 + Trametinib = compound: O=C(Nc1cccc(C(F)(F)F)c1)Nc1cc(S(=O)(=O)NC2CC2)ccc1-c1ccsc1 [AGI-6780] + CC(=O)Nc1cccc(-n2c(=O)n(C3CC3)c(=O)c3c(Nc4ccc(I)cc4F)n(C)c(=O)c(C)c32)c1 [Trametinib] (partner 0.02 µM)
Method in brief: as §1

AGI-6780 = compound: O=C(Nc1cccc(C(F)(F)F)c1)Nc1cc(S(=O)(=O)NC2CC2)ccc1-c1ccsc1 [AGI-6780]
Method in brief: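 On vehicle-anchored 1536-well plates, lung cancer cell lines held overnight at 37 °C were pinned with five library-drug doses (not always all listed) spaced by √10. With no medium change over 5 days, they were then fixed, permeabilised and Hoechst-stained in one step and imaged at 4×. MetaXpress counted nuclei, and viability is the median across plates of treated-well over vehicle-well nuclei. Acceptance needed control CV below 25% and at least one doubling.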

Cell Line	relative viability (AGI-6780 + Tozasertib; first compound 0.08 µM)	relative viability (AGI-6780 + Tozasertib; first compound 0.253 µM)	relative viability (AGI-6780 + Tozasertib; first compound 0.8 µM)	relative viability (AGI-6780 + Tozasertib; first compound 2.53 µM)	relative viability (AGI-6780 + Tozasertib; first compound 8 µM)	relative viability (AGI-6780 + AZD7762; first compound 0.08 µM)	relative viability (AGI-6780 + AZD7762; first compound 0.253 µM)	relative viability (AGI-6780 + AZD7762; first compound 0.8 µM)	relative viability (AGI-6780 + AZD7762; first compound 2.53 µM)	relative viability (AGI-6780 + AZD7762; first compound 8 µM)	relative viability (AGI-6780 + Trametinib; first compound 0.08 µM)	relative viability (AGI-6780 + Trametinib; first compound 0.253 µM)	relative viability (AGI-6780 + Trametinib; first compound 0.8 µM)	relative viability (AGI-6780 + Trametinib; first compound 2.53 µM)	relative viability (AGI-6780 + Trametinib; first compound 8 µM)	relative viability (AGI-6780; 0.08 µM)	relative viability (AGI-6780; 0.253 µM)	relative viability (AGI-6780; 0.8 µM)	relative viability (AGI-6780; 2.53 µM)	relative viability (AGI-6780; 8 µM)
NCI-H1355	0.594	0.575	0.562	0.41	0.45	0.792	0.812	0.769	0.663	0.655	0.426	0.496	0.465	0.354	0.404	1.02	1.07	1.03	0.823	1
ChaGo-K-1	0.238	0.229	0.221	0.197	0.222	0.851	0.932	0.932	0.812	0.919	0.876	0.799	0.888	0.815	0.871	1.01	1.02	1.06	0.921	1
LK-2	0.178	0.16	0.147	–	0.162	0.374	0.412	0.63	–	0.501	0.864	0.69	0.813	0.541	0.868	0.945	1.02	1.08	–	1.16
PC-3 [JPC-3]	0.943	0.859	0.94	0.858	0.813	–	0.758	0.984	0.877	0.729	–	0.582	0.701	0.744	0.626	0.982	1.04	1.08	1.08	0.962
NCI-H2170	0.687	0.752	0.665	0.546	0.814	0.803	0.904	0.987	–	0.827	1.03	0.881	0.997	–	0.863	0.988	1	0.909	–	0.975
NCI-H1648	0.45	0.581	0.639	0.401	0.378	0.676	0.846	0.89	0.769	0.81	0.47	0.53	0.377	0.409	0.433	0.735	0.999	0.983	0.942	1.08
LCLC-97TM1	0.217	0.265	0.291	0.195	0.197	0.276	0.279	0.445	0.31	0.303	0.173	0.21	0.152	0.159	0.197	0.959	0.983	1.03	0.758	0.966
NCI-H460	0.537	0.453	0.491	0.349	0.176	0.444	0.671	0.684	0.726	0.564	0.286	0.149	0.117	0.1	0.167	0.987	0.99	0.998	0.977	0.992
BEN	0.526	0.497	0.503	0.433	0.425	0.6	0.737	0.754	–	0.721	0.897	0.999	1.14	–	0.993	0.834	0.959	1.04	–	0.957
LCLC-103H	0.492	0.475	0.51	0.451	0.562	0.716	0.812	0.712	0.647	0.792	0.678	0.709	0.643	0.644	0.696	1.05	1.08	0.963	0.861	0.941
NCI-H1651	0.785	0.601	0.591	0.429	0.693	0.42	0.495	0.463	0.518	0.434	0.816	0.82	0.833	0.73	0.839	1.03	1.04	0.957	0.921	1.02
SW 900	0.526	0.52	0.644	0.473	0.512	0.657	0.676	0.811	0.557	0.634	1.01	0.832	0.915	0.688	1.18	0.858	0.868	1.08	0.901	0.935
NCI-H1975	0.9	0.819	0.738	–	0.474	0.662	0.848	0.821	0.653	0.711	0.369	0.348	0.29	0.207	0.322	0.94	1.08	0.918	0.873	0.921
NCI-H650	0.749	0.747	0.72	0.642	0.7	0.81	1.05	1.24	0.92	1.07	0.989	1.07	0.935	0.823	0.964	0.873	1.04	0.937	0.843	1.06
LC-2-ad	0.433	0.477	0.447	0.327	0.468	0.895	0.885	0.921	0.877	0.859	0.917	0.873	0.931	0.964	0.917	1.02	1.05	1.1	0.96	0.996
HCC-78	–	0.404	0.452	0.304	0.438	0.978	0.697	0.837	0.684	0.681	0.824	0.629	0.925	0.924	0.775	0.876	1.04	1.05	0.982	1.02

Cell Line	relative viability (AGI-6780 + Tozasertib; first compound 0.08 µM)	relative viability (AGI-6780 + Tozasertib; first compound 0.253 µM)	relative viability (AGI-6780 + Tozasertib; first compound 0.8 µM)	relative viability (AGI-6780 + Tozasertib; first compound 2.53 µM)	relative viability (AGI-6780 + Tozasertib; first compound 8 µM)	relative viability (AGI-6780 + AZD7762; first compound 0.08 µM)	relative viability (AGI-6780 + AZD7762; first compound 0.253 µM)	relative viability (AGI-6780 + AZD7762; first compound 0.8 µM)	relative viability (AGI-6780 + AZD7762; first compound 2.53 µM)	relative viability (AGI-6780 + AZD7762; first compound 8 µM)	relative viability (AGI-6780 + Trametinib; first compound 0.08 µM)	relative viability (AGI-6780 + Trametinib; first compound 0.253 µM)	relative viability (AGI-6780 + Trametinib; first compound 0.8 µM)	relative viability (AGI-6780 + Trametinib; first compound 2.53 µM)	relative viability (AGI-6780 + Trametinib; first compound 8 µM)	relative viability (AGI-6780; 0.08 µM)	relative viability (AGI-6780; 0.253 µM)	relative viability (AGI-6780; 0.8 µM)	relative viability (AGI-6780; 2.53 µM)	relative viability (AGI-6780; 8 µM)
RERF-LC-KJ	0.506	0.619	0.461	0.452	0.34	0.853	0.811	1.04	0.777	0.952	0.859	0.862	0.828	0.674	0.774	1.05	1.06	0.977	0.798	0.951
NCI-H358	0.11	0.108	0.112	0.105	0.11	0.678	0.504	0.648	0.501	0.475	0.139	0.174	0.132	0.112	0.136	1.1	0.911	0.95	0.794	0.916
NCI-H1437	0.486	0.42	0.428	0.408	0.391	1.11	1.11	1.28	1.16	1.17	0.537	0.548	0.512	0.406	0.522	0.943	1	1.04	1	0.997
HOP-62	0.328	0.366	0.398	0.302	0.408	0.659	0.592	0.826	0.846	0.82	0.366	0.321	0.316	0.321	0.396	1.03	1.01	0.994	0.984	1.03
HCC-15	0.625	0.438	0.547	0.186	0.458	1.18	1.32	1.34	1.43	1.25	0.369	0.426	0.349	0.309	0.369	1.09	1.06	1.1	0.808	1.05
HCC-44	0.831	1.02	1.25	0.981	0.814	0.916	1.11	1.04	1.07	1.04	1.08	0.993	1.1	0.994	1.07	0.955	1.01	0.995	1.04	0.959
NCI-H441	0.608	0.733	0.474	0.415	0.599	1.33	1.35	1.43	1.2	1.39	0.554	0.49	0.553	0.422	0.51	1.08	1.03	1.04	0.786	1.16
NCI-H2405	0.813	0.728	0.565	0.766	0.661	–	0.725	0.603	0.752	0.658	–	0.649	0.57	0.492	0.583	0.995	1	0.842	0.923	1.01
NCI-H1993	0.547	0.588	0.623	0.464	0.536	0.681	1.05	1.01	–	0.928	0.639	0.562	0.535	–	0.604	1.01	1.07	1.19	0.677	0.971
NCI-H596	0.839	0.898	0.725	–	0.983	1.18	1.06	1.1	0.891	1.01	0.841	0.712	0.655	0.652	0.777	0.96	0.954	0.87	0.724	1.12
NCI-H522	0.485	0.5	0.606	0.534	0.53	0.821	0.907	0.848	–	0.78	0.667	0.801	0.75	–	0.645	0.972	0.965	0.909	0.865	0.962
A-427	0.264	0.217	0.19	0.154	0.168	–	0.706	0.806	0.766	0.783	–	0.7	0.797	0.559	0.725	0.994	0.919	1.1	0.815	1.04
LOU-NH91	0.725	0.642	0.63	0.583	0.64	0.759	0.802	0.79	0.67	0.812	0.826	0.777	0.765	0.751	0.824	0.953	0.992	1.04	0.923	0.961
HCC-366	0.102	0.184	0.0941	0.0598	0.0437	0.232	0.293	0.34	0.35	0.193	0.395	0.375	0.365	0.156	0.301	1.01	1.08	1.01	0.96	1.02
CAL-12T	0.389	0.32	0.3	0.276	0.31	0.616	0.649	0.806	0.781	0.687	0.307	0.425	0.306	0.309	0.321	0.962	1.02	1.18	1.03	1.07
NCI-H1666	0.603	0.616	0.611	0.503	0.563	0.809	0.977	0.842	0.926	0.898	0.936	0.885	0.836	0.776	0.93	1	0.974	0.981	0.843	1.06
